Experimental data: patent US20180085452A1, “MATRIX-EMBEDDED TOLERANCE-PROMOTING ADJUVANTS FOR SUBCUTANEOUS IMMUNOTHERAPY” (Tolerogenics S.a.r.l,, priority 2016, published 2018)
≈ marks a conversion by molar mass, not a printed value. Where “and” joins values, the source holds several entries; their conditions need not be identical. Equal values may be shown once. Entries after “also recorded” stand apart in the source; their conditions may differ. Read-outs that look alike come from different tables or passages of the source.

Columns and labels:
type 1 diabetes = details: cited from earlier work
[1] = during the first 24 hours; EP14075015.9; cited from earlier work
phagocytes = details: approximately a threefold increase; cited from earlier work
[2] = test system: TNFR1-mediated activation of NF-κB; details: cited from earlier work
[3] = cited from earlier work
rheumatoid arthritis [4] = details: placebo 29.2%, cited from earlier work
patients with RA = details: placebo 22.0%, cited from earlier work
[5] = cited from earlier work; remark: listed apart in the source
[6] = cited from earlier work; remark: listed apart in the source
[7] = test system: experimental autoimmune encephalomyelitis (EAE); details: i.p. 5 μg/kg body weight every 2 days; cited from earlier work
mice = details: cited from earlier work
[8] = cited from earlier work; remark: listed apart in the source
calcium metabolism = details: in vivo studies in rats; cited from earlier work
rats = details: cited from earlier work
[9] = cited from earlier work; remark: listed apart in the source
[10] = rodents; cited from earlier work
[11] = cited from earlier work; remark: listed apart in the source
rheumatoid arthritis [12] = test system: rheumatoid arthritis; design: patients going into remission: dose or concentration left out as unconfirmed; details: on methotrexate therapy, cited from earlier work
[13] = in vitro release of DexP from PLGA-PEG-PLGA hydrogel; type: physicochemical; details: 37° C., PBS
Description: A 20 mM stock solution of DexP in PBS (10.3 mg/ml; MW 516.4; Sigma-Aldrich) is diluted 1:40 in PBS (final concentration: 0.5 mM), and 20 μl of the diluted stock solution is combined with 160 μl of 25% gel solution and 20 μl of 10× PBS (final concentration of DexP: 0.05 mM).
The mixture of is incubated for 2 minutes at 37° C. to induce gelling and overlayed with 200 μl of 1× PBS. At frequent time points the supernatant is removed by pipetting and stored at 4° C. The removed supernatant is replaced by fresh 200 μl of 1× PBS. Controls of the same concentration of DexP in 1× PBS without gel are incubated and sampled in parallel.
Released DexP is determined with a spectrophotometric method (Singh and Verma, 2008). The method involves oxidation of the corticosteroid by iron (III) and subsequent complexation of iron (II) with potassium hexacynoferate (III), forming a bluish green coloured complex with maximum absorbance at 780 nm (Beer's law range: 10-50 μg/ml; molar absorptivity (M^−1cm^−1): for DexP 0.55×10^4).

Question: With vitamin D as the molecule, how does the “relative risk of type 1 diabetes over the subsequent 30 years” value (type 1 diabetes; doses of exactly 50 μg/day) read?
Answer: 0.22

Question: What about the “relative risk of type 1 diabetes over the subsequent 30 years” value (type 1 diabetes; doses of over 50 μg/day (2000 IU/d) during infancy) of the same molecule?
Answer: 0.14

Question: Which “released from the hydrogel” value [1] does the source give for `O=c1ccn([C@@H]2O[C@H](COP(=O)(O)OP(=O)(O)OP(=O)(O)O)[C@@H](O)[C@H]2O)c(=O)[nH]1` [UTP] here?
Answer: approx. 60%

Question: What about the “concentration effecting maximal migration of phagocytes” value (phagocytes) of the same molecule?
Answer: about 100 nM

Question: With `O=C([O-])c1ccccc1O.[Na+]` [sodium salicylate] as the molecule, how does the “dose required for inhibition of TNFR1-mediated activation of NF-κB” value [2] read?
Answer: 10 to 20 mM

Question: For `C[C@@H]1CCN(C(=O)CC#N)C[C@@H]1N(C)c1ncnc2[nH]ccc12` [tofacitinib], which in vivo half-life [3] is on record?
Answer: 2 to 3 h

Question: What about the “ACR20 response rate by week 6” value (rheumatoid arthritis [4]; 5 mg twice daily) of the same molecule?
Answer: 70.5%

Question: What about the “ACR20 response rate by week 6” value (rheumatoid arthritis [4]; 15 mg twice daily) of the same molecule?
Answer: 81.2%

Question: And the “ACR20 response rate by week 6” value (rheumatoid arthritis [4]; 30 mg twice daily)?
Answer: 76.8%

Question: What about the “ACR20 response at week 12” value (patients with RA; 3 mg orally twice a day) of the same molecule?
Answer: 39.2%

Question: What about the “ACR20 response at week 12” value (patients with RA; 5 mg orally twice a day) of the same molecule?
Answer: 59.2%

Question: And the “ACR20 response at week 12” value (patients with RA; 10 mg orally twice a day)?
Answer: 70.5%

Question: And the “ACR20 response at week 12” value (patients with RA; 15 mg orally twice a day)?
Answer: 71.9%

Question: With `C=C1/C(=C\C=C2/CCC[C@]3(C)[C@@H]([C@H](C)CCCC(C)(C)O)CC[C@@H]23)C[C@@H](O)C[C@@H]1O` [calcitriol, 1α,25-dihydroxyvitamin D3] as the molecule, how does the “solubility in a 1:5 solution of ethanol:PBS” value ([5]; 1:5 ethanol:PBS, pH 7.2) read?
Answer: approx. 0.15 mg/ml

Question: And the “single oral dose relatively well tolerated (only grade 1 to 2 adverse events)” value [6]?
Answer: up to 165 μg

Question: What about the “treated mice in which appearance of paralysis was prevented” value [7] of the same molecule?
Answer: 70%

Question: What about the “dose that can be administered as a single bolus i.p. injection” value (mice; in 0.2 ml of normal saline) of the same molecule?
Answer: up to 500 ng/mouse

Question: What about the “dose above which mice can become hypercalcemic on day 2 or day 3” value (mice; single bolus i.p.) of the same molecule?
Answer: higher than 750 ng/mouse

Question: For `C=C1/C(=C\C=C2/CCC[C@]3(C)[C@@H]([C@H](C)/C=C/[C@@H](O)C4CC4)CC[C@@H]23)C[C@@H](O)C[C@@H]1O` [calcipotriol], which “rate of clearance, times higher than for calcitriol” value ([8]; rat, in vivo) is on record?
Answer: approximately 140 times

Question: What about the “half-life in circulation (serum half-life)” value ([8]; rats) of the same molecule?
Answer: 4 min

Question: What about the “effect on calcium metabolism, times less than calcitriol” value (calcium metabolism) of the same molecule?
Answer: 100-200 times

Question: And the “single s.c. dose up to which no death occurred” value (rats)?
Answer: ≤ 540 μg/kg body weight

Question: What about the “applied dose absorbed systemically” value ([9]; ointment applied to normal skin) of the same molecule?
Answer: ~5%

Question: And the “applied dose absorbed systemically” value ([9]; ointment applied topically to psoriasis plaques)?
Answer: approximately 6%

Question: With `C=C1CC[C@H](O)C/C1=C/C=C1\CCC[C@]2(C)[C@@H]([C@H](C)CCCC(C)(C)O)CC[C@@H]12` [calcidiol, 25-hydroxyvitamin D3] as the molecule, how does the “plasma concentrations tolerated with normo-calcemia” value [10] read?
Answer: 250 to 1000 nM

Question: What about the “plasma concentration that can produce vitamin D toxicity” value ([11]; Jones (2008)) of the same molecule?
Answer: above 0.75 μM; also recorded: approx. 300 ng/ml

Question: And the “calcidiol level at which toxicity occurs” value ([11]; Shephard and DeLuca (1980))?
Answer: ≥ 500 ng/ml and approx. 1.25 μM

Question: For `C=C1/C(=C\C=C2/CCC[C@]3(C)[C@@H]([C@H](C)CCCC(C)C)CC[C@@H]23)C[C@@H](O)C[C@@H]1O` [alfacalcidiol], which “patients with improvement of disease activity” value (rheumatoid arthritis [12]; 2 pg/day for 3 months) is on record?
Answer: 89%

Question: What about the “patients going into remission” value (rheumatoid arthritis [12]; for 3 months) of the same molecule?
Answer: 45%

Question: What does the source list for `C[C@@H]1CCN(C(=O)CC#N)C[C@@H]1N(C)c1ncnc2[nH]ccc12` [free base of tofacitinib, tofacitinib]?
Answer: solubility in DMSO ([5]; DMSO): 100 mg/mL (≈ 320 mM); solubility in ethanol [5]: 100 mg/mL (≈ 320 mM); maximum solubility in plain water ([5]; plain water, estimated): 10-20 μM and 3.12-6.24 μg/ml

Question: Which results are given for `C[C@@H]1C[C@H]2[C@@H]3CCC4=CC(=O)C=C[C@]4(C)[C@@]3(F)[C@@H](O)C[C@]2(C)[C@@]1(O)C(=O)COP(=O)(O)O` [DexP, dexamethasone sodium phosphate]?
Answer: hydrogel-embedded DexP released ([13]; after 2 days): 80-90%; hydrogel-embedded DexP released ([13]; within the first 6 hours): 30-50%

Question: Which “released from the hydrogel” value [1] does the source give for `Nc1ncnc2c1ncn2[C@@H]1O[C@H](COP(=O)(O)OP(=O)(O)OP(=O)(O)O)[C@@H](O)[C@H]1O` [ATP] here?
Answer: approx. 60%

Question: What about the solubility in ethanol ([5]; 25° C.) of the same molecule?
Answer: less than 1 mg/ml

Question: What about the “concentration effecting maximal migration of phagocytes” value (phagocytes) of the same molecule?
Answer: about 100 nM
